Values joined by “and” are separate entries in the source; they are usually repeats but may differ in a detail not shown here. Identical values can stand only once. “Also recorded” adds a separate entry of the source.
Key:
[1] = target: T1, NQO2 (Homo sapiens, UniProt P16083); test: EPR measurement of free radicals (ROS) produced after metabolism by NQO2; type: biochemical; conditions: for radical production after reduction by NQO2: EPR with DMPO spin trap; for radical production after adding the specific NQO2 inhibitor S29434 / ROS after NQO2 Reduction: EPR; for radical production after adding the specific NQO2 inhibitor S29434: S29434 30 µM; for ROS after NQO2 Reduction: purified NQO2 20 µg/mL, compound 125 µM, BNAH 1 mM, DMPO 125 mM, grades - to + + + + +, key not given
T1 construct: The experiments were conducted with purified enzyme NQO2 (20 µg/mL)
T1 sequence (P16083 1-231): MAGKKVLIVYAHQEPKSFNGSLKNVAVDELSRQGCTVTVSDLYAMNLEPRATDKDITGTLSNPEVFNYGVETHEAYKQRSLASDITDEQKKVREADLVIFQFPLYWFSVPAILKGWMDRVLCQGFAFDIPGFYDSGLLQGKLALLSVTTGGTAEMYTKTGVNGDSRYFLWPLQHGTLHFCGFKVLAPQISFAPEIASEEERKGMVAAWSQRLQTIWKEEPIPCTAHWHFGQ
Protocol: As in previous work, we used an indirect assay to characterize the substrates. […] Using the capacity of NQO2 to reduce quinones into hydroquinones or quinols, we incubated the substrate candidates with the enzyme and its co-substrate, a synthetic hydride donor, N-benzyldihydronicotinamide. […] Thus, using an EPR-based assay, it was possible to evaluate the potency of the process by quantifying those bursts by measuring for the presence of free radicals. The rationale of the process was based on the simple idea that such substrates would generate bursts of ROS, which are particularly toxic for infected red cells.
We measured the ability of the selected compounds to produce superoxide radicals during the redox cycle of NQO2 by EPR spectroscopy. The following compounds were used as molecular tools: Menadione (Figure 1) as a reference compound and NQO2 substrate, S29434 as a specific NQO2 inhibitor [17] and dimethyl-pyrroline-N-oxide (DMPO) as a spin trap reagent to characterize ROS.
The experiments were conducted with purified enzyme NQO2 (20 µg/mL), DMPO (125 mM), tested compounds (125 µM) and BNAH (1 mM). For inhibition assays, we added S29434 (30 µM). All analyses were performed at room temperature. EPR spectra were recorded with a Bruker EMX-8/2.7 (9.86 GHz) with a high-sensitivity cavity (4119/HS 0205) and a gaussmeter (Bruker, Wissembourg, France), at X-band. For analyses, we used a flat quartz cell, FZKI160-5 × 0.3 mm (Magnettech, Berlin, Germany). We performed data processing and spectrum acquisition with WINEPR software (Bruker). Scanning parameters were: Number of scans, 5; magnetic field, 3460–3560 G; sweep width, 100 G; scan rate, 1.2 G/s; modulation amplitude, 1 G; sweep time, 83.88 s; time constant, 40.96 ms; modulation frequency, 100 kHz; and microwave power, 20 mW. The EPR spectra were analyzed as reported previously. The EPR spectrum was presented with the magnetic field on the x-axis in gauss (g) and the intensity of the peaks on the y-axis in arbitrary units (a.u.).

[2] = system: P. falciparum strain FcB1; test: In vitro antiplasmodial activity, SYBR Green I-based fluorescence assay; type: cell-based, Plasmodium falciparum; conditions: for IC50: Plasmodium falciparum, FCB1, 48 h, P. falciparum FcB1 (chloroquine-resistant strain), 48 h, read-out: IC50
Protocol: The in vitro anti-malarial activity was investigated using the SYBR Green I-based fluorescence assay. The asexual intra-erythrocytic stage of P. falciparum laboratory strain FcB1 (chloroquine-resistant strain) was maintained in RPMI 1640 medium containing l-glutamine 200 µM, Hepes 25 mM and 5% human serum (Etablissement Français du Sang—EFS, Toulouse, France). For anti-malarial drug assays, stock solutions of compounds were diluted serially in RPMI 1640 culture medium to test final concentrations between 0.001 and 1 µg/mL in triplicates in a 96-well plate. The final concentration of DMSO was 0.5%. A suspension of sorbitol-synchronized, infected red blood cells (iRBCs) was adjusted to 1% parasitemia and 2% hematocrit in complete medium and added to the wells. Negative controls were prepared with a suspension of iRBCs and 0.5% DMSO. Chloroquine was used as the positive control. Test plates were incubated at 37 °C for 48 h. Afterwards, 100 μL SYBR Green I fluorescent lysis buffer were added to each well and incubated in a dark place at room temperature for 2 h. Fluorescence data were acquired using a fluorescence plate reader (BMG Fluostar Galaxy Labtech) with excitation and emission wavelengths at 485 nm and 518 nm, respectively. The fluorescence values (after subtraction of the background fluorescence of the non-parasitized RBCs) were plotted against the log of the drug concentration, and analyzed by non-linear regression (sigmoidal dose response/variable slope equation) to yield the IC50 (50% inhibitory concentration) that served as a measure of the anti-malarial activity.

[3] = system: P. chabaudi chabaudi; test: Four-days suppressive test, P. chabaudi chabaudi mice model (uncomplicated malaria); type: in vivo, Plasmodium chabaudi chabaudi in Swiss mice; conditions: for % inhibition of parasite density at D8: 50 mg/kg intraperitoneal D0 to D3, D8; for Pcc parasite density compared to DMSO treatment: 50 mg/kg intraperitoneal D0 to D3, D8 (peak of parasitemia), p < 0.0001; for weight development at D11 after Pcc infection: 50 mg/kg intraperitoneal D0 to D3, D11; for death after Pcc infection: 50 mg/kg intraperitoneal D0 to D3, monitored 13 days
Protocol: As previously described, the four-days suppressive standard test described by Knight and Peters was used to evaluate antimalarial activity of Compounds 1 and 3. P. chabaudi chabaudi (Pcc) and P. berghei ANKA (PbA) infections in Swiss mice were used as experimental models for uncomplicated and cerebral malaria, respectively. […] On the first day (D0), mice were inoculated intraperitoneally with 0.2 mL of infected blood containing about 1 × 10^6 parasitized erythrocytes. […] All mice groups were treated similarly for four consecutive days (D0–D3). Weight, parasitemia and survival were followed daily. To follow peripheral parasite density, thin blood smears were made daily from tail blood from D3 to D14. Blood smears were fixed with methanol and stained with a fast-acting variation of the May–Grünwald Giemsa staining (RAL 555 kit, RAL diagnostics). Average percentage chemosuppression was calculated at D8 for both infection models as ((A − B)/A) × 100 where A is the average percentage parasitemia in the negative control group and B is the average percentage parasitemia in the test group. Survival was monitored twice daily. […]

[4] = system: P. berghei ANKA; test: Four-days suppressive test, P. berghei ANKA mice model (cerebral malaria); type: in vivo, Plasmodium berghei ANKA in Swiss mice; conditions: for survival rate on D10: 50 mg/kg intraperitoneal D0 to D3, D10
Protocol: As previously described, the four-days suppressive standard test described by Knight and Peters was used to evaluate antimalarial activity of Compounds 1 and 3. P. chabaudi chabaudi (Pcc) and P. berghei ANKA (PbA) infections in Swiss mice were used as experimental models for uncomplicated and cerebral malaria, respectively. […] On the first day (D0), mice were inoculated intraperitoneally with 0.2 mL of infected blood containing about 1 × 10^6 parasitized erythrocytes. […] All mice groups were treated similarly for four consecutive days (D0–D3). Weight, parasitemia and survival were followed daily. To follow peripheral parasite density, thin blood smears were made daily from tail blood from D3 to D14. Blood smears were fixed with methanol and stained with a fast-acting variation of the May–Grünwald Giemsa staining (RAL 555 kit, RAL diagnostics). Average percentage chemosuppression was calculated at D8 for both infection models as ((A − B)/A) × 100 where A is the average percentage parasitemia in the negative control group and B is the average percentage parasitemia in the test group. Survival was monitored twice daily. The percentage survival was determined over a period of 21 days (D0–D20) and compared between groups.

[5] = 50 mg/kg intraperitoneal D0 to D3

COc1ccc2c(c1)C(=O)C(=O)C1=C2OC(C)C1(C)C (stereo not drawn) [Compound 3]
radical production after reduction by NQO2 [1]: produced radicals; also recorded: induced a production of ROS
radical production after adding the specific NQO2 inhibitor S29434 [1]: decreased
ROS after NQO2 Reduction [1]: + + +
TI (Therapeutic Index = CC50/IC50) [2]: 1.70
IC50 [2]: 845 ± 334 nM
% inhibition of parasite density at D8 [3]: 90.6% and 74.8%
Pcc parasite density compared to DMSO treatment [3]: highly reduced
weight development at D11 after Pcc infection [3]: lost more weight than other groups
death after Pcc infection [3]: did not cause any death
efficacy on parasite density compared to the CQ treatment ([3]; 50 mg/kg intraperitoneal vs CQ, D8): less effective
effect on weight loss and parasitemia during PbA infection [4, 5]: did not limit either weight loss or parasitemia
survival rate on D10 [4]: 100%

COc1cccc2c1C1=C(C(=O)C2=O)C(C)(C)C(C)O1 (stereo not drawn) [Compound 1]
radical production after reduction by NQO2 [1]: produced radicals; also recorded: induced a production of ROS
radical production after adding the specific NQO2 inhibitor S29434 [1]: decreased
ROS after NQO2 Reduction [1]: + +
TI (Therapeutic Index = CC50/IC50) [2]: 3.83
IC50 [2]: 633 ± 740 nM
% inhibition of parasite density at D8 [3]: 74.8% and 90.6%
Pcc parasite density compared to DMSO treatment [3]: highly reduced
weight development at D11 after Pcc infection [3]: lost more weight than other groups
death after Pcc infection [3]: did not cause any death
effect on weight loss and parasitemia during PbA infection [4, 5]: did not limit either weight loss or parasitemia
superiority over DMSO (survival) [4, 5]: statistically significant until D15
survival rate on D10 [4]: 80%

Source: PMC6832513, “Antimalarial Properties of Dunnione Derivatives as NQO2 Substrates” (Molecules, 2019)
